From US20230089867A1, “CYCLIC PENTAMER COMPOUNDS AS PROPROTEIN CONVERTASE SUBTILISIN/KEXIN TYPE 9 (PCSK9) INHIBITORS FOR THE TREATMENT OF METABOLIC DISORDER” (Novartis AG, priority 2018, published 2023) come the findings set out here.

For the experiment, the target named is human PCSK9 (Homo sapiens, UniProt Q8NBP7). In words: PCSK9 ligand binding TR-FRET assay (interference with binding of human PCSK9 to human LDLR). Conditions: for Max % inhibition: PCSK9 FRET assay, efficacy (Amax), 100% = 1 uM unlabeled human PCSK9, 0% = DMSO; for IC50: TR-FRET, human PCSK9 Alexa Fluor 647 / human LDLR extracellular domain-Europium Kryptate, read-out: PCSK9 FRET Assay IC50. In a few lines:
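Threefold compound dilutions were pre-incubated 30 min with PCSK9, after which 4 nM Europium Kryptate-tagged human LDLR ectodomain was added for a further 2 h.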

The structures appear in SMILES notation.

Sequence of human PCSK9 (Q8NBP7 153-692): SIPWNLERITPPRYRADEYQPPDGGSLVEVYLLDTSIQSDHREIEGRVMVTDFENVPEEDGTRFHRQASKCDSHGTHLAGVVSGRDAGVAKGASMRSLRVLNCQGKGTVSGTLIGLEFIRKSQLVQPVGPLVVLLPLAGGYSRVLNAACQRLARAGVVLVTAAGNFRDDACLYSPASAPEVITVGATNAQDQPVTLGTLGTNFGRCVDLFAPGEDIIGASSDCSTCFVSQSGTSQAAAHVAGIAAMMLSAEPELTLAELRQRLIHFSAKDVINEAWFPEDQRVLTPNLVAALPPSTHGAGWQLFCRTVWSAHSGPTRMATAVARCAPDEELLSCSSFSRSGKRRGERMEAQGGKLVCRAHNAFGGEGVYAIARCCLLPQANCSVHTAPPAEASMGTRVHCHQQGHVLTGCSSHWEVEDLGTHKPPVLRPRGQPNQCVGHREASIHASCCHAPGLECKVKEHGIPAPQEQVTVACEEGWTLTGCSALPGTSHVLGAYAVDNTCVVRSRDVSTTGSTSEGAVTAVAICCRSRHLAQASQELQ
Sequence of human PCSK9 (Q8NBP7 31-152 partner limits assumed): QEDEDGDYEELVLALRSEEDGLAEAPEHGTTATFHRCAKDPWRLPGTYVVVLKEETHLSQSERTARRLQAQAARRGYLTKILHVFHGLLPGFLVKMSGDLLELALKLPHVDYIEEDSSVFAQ

The IC50 is the concentration that inhibits the measured activity by half. In the case of `COC[C@@H]1NC(=O)[C@H](C)N(Cc2ccc(Cl)cc2Oc2ccc(-c3cnc(CN4CCCC4)n3C)c(F)c2)C(=O)C[C@@H](Cc2ccccc2)C(=O)N(C)[C@@H](C)CNC(=O)C[C@H](Cc2ccc(Cl)cc2)N(C)C1=O` [Compound 72, (2S,5S,8S,13S,16R)-16-benzyl-1-(4-chloro-2-(3-fluoro-4-(1-methyl-2-(pyrrolidin-1-ylmethyl)-1H-imidazol-5-yl)phenoxy)benzyl)-8-(4-chlorobenzyl)-5-(methoxymethyl)-2,7,13,14-tetramethyl-1,4,7,11,14-pentaazacyclooctadecane-3,6,10,15,18-pentaone], the Max % inhibition is given as 92.57% and the 50% inhibitory concentration (IC50) was found to be 0.5 nM.

For `COC[C@@H]1NC(=O)[C@@H](C)N(Cc2ccc(C(F)F)cc2Oc2ccc(-c3cnc(CN(C)C)n3C)cc2)C(=O)C[C@@H](Cc2ccccc2)C(=O)N(C)[C@@H](C)CNC(=O)C[C@H](Cc2ccc(Cl)cc2)N(C)C1=O` [Compound 74, (2R,5S,8S,13S,16R)-16-benzyl-8-(4-chlorobenzyl)-1-(4-(difluoromethyl)-2-(4-(2-((dimethylamino)methyl)-1-methyl-1H-imidazol-5-yl)phenoxy)benzyl)-5-(methoxymethyl)-2,7,13,14-tetramethyl-1,4,7,11,14-pentaazacyclooctadecane-3,6,10,15,18-pentaone], the Max % inhibition was found to be 104.33% and the concentration for half-maximal inhibition (IC50) was 46.5 nM.

With `CCC[C@@H](O)[C@@H]1CC(=O)N(Cc2ccc(Cl)cc2Oc2ccc(-c3cnc(CN(C)C)n3C)cc2)[C@@H](C)C(=O)N[C@@H](COC)C(=O)N(C)[C@@H](Cc2ccc(Cl)cc2)CC(=O)NC[C@H](C)N(C)C1=O` [Compound 75, (2S,5S,8S,13S,16S)-1-(4-chloro-2-(4-(2-((dimethylamino)methyl)-1-methyl-1H-imidazol-5-yl)phenoxy)benzyl)-8-(4-chlorobenzyl)-16-((R)-1-hydroxybutyl)-5-(methoxymethyl)-2,7,13,14-tetramethyl-1,4,7,11,14-pentaazacyclooctadecane-3,6,10,15,18-pentaone], the Max % inhibition is 103.69% and the IC50 was 4 nM.

On to `COC[C@@H]1NC(=O)[C@H](C)N(Cc2ccc(Cl)cc2Oc2ccc(-c3cnc(CN4CCC4)n3C)cc2)C(=O)C[C@@H](Cc2ccccc2)C(=O)N(C)[C@@H](C)CNC(=O)C[C@H](Cc2ccc(Cl)cc2)N(C)C1=O` [Compound 76, (2S,5S,8S,13S,16R)-1-(2-(4-(2-(azetidin-1-ylmethyl)-1-methyl-1H-imidazol-5-yl)phenoxy)-4-chlorobenzyl)-16-benzyl-8-(4-chlorobenzyl)-5-(methoxymethyl)-2,7,13,14-tetramethyl-1,4,7,11,14-pentaazacyclooctadecane-3,6,10,15,18-pentaone], for which the Max % inhibition turned out to be 96.97% and the IC50 turned out to be 1 nM.

`COC[C@@H]1NC(=O)[C@H](C)N(Cc2ccc(Cl)cc2Oc2ccc(-c3cnc(CN(C)C)n3C)cc2)C(=O)C[C@@H](Cc2ccccc2)C(=O)N(C)[C@@H]2C[C@@H]2NC(=O)C[C@H](Cc2ccc(Cl)cc2)N(C)C1=O` [Compound 77, (1S,5S,8S,11S,15R,18R)-15-benzyl-12-(4-chloro-2-(4-(2-((dimethylamino)methyl)-1-methyl-1H-imidazol-5-yl)phenoxy)benzyl)-5-(4-chlorobenzyl)-8-(methoxymethyl)-6,11,17-trimethyl-2,6,9,12,17-pentaazabicyclo[16.1.0]nonadecane-3,7,10,13,16-pentaone]: the Max % inhibition is reported as 104.08% and the IC50 was determined as 9 nM.

On to `COC[C@@H]1NC(=O)[C@H](COC)N(Cc2ccc(Cl)cc2Oc2ccc(-c3cnc(CN(C)C)n3C)cc2)C(=O)C[C@@H](Cc2ccccc2)C(=O)N(C)[C@@H](C)CNC(=O)C[C@H](Cc2ccc(Cl)cc2)N(C)C1=O` [Compound 78, (2S,5S,8S,13S,16R)-16-benzyl-1-(4-chloro-2-(4-(2-((dimethylamino)methyl)-1-methyl-1H-imidazol-5-yl)phenoxy)benzyl)-8-(4-chlorobenzyl)-2,5-bis(methoxymethyl)-7,13,14-trimethyl-1,4,7,11,14-pentaazacyclooctadecane-3,6,10,15,18-pentaone], for which the Max % inhibition is reported as 97.49% and the IC50 worked out at 94.6 nM.

For `C[C@H]1C(=O)N[C@@H](COC(F)F)C(=O)N(C)[C@@H](Cc2ccc(Cl)cc2)CC(=O)N[C@H]2CCCC[C@@H]2N(C)C(=O)[C@H](Cc2ccccc2)CC(=O)N1Cc1ccc(Cl)cc1Oc1ccc(-c2cnc(CN(C)C)n2C)cc1` [Compound 79, (4S,7S,10S,14R,16aS,20aS)-14-benzyl-11-(4-chloro-2-(4-(2-((dimethylamino)methyl)-1-methyl-1H-imidazol-5-yl)phenoxy)benzyl)-4-(4-chlorobenzyl)-7-((difluoromethoxy)methyl)-5,10,16-trimethylhexadecahydrobenzo[l][1,4,7,11,14]pentaazacyclooctadecine-2,6,9,12,15(3H)-pentaone], the Max % inhibition stood at 103.04% and the IC50 was 1.8 nM.

For the compound `COC[C@@H]1NC(=O)[C@H](C)N(Cc2ccc(C(F)(F)F)cc2Oc2ccc(-c3cnc(CN4CCCC4)n3C)cc2)C(=O)C[C@@H](Cc2ccccc2)C(=O)N(C)[C@@H](C)CNC(=O)C[C@H](Cc2ccc(Cl)cc2)N(C)C1=O` [Compound 80, (2S,5S,8S,13S,16R)-16-benzyl-8-(4-chlorobenzyl)-5-(methoxymethyl)-2,7,13,14-tetramethyl-1-(2-(4-(1-methyl-2-(pyrrolidin-1-ylmethyl)-1H-imidazol-5-yl)phenoxy)-4-(trifluoromethyl)benzyl)-1,4,7,11,14-pentaazacyclooctadecane-3,6,10,15,18-pentaone], the Max % inhibition was found to be 103.62% and the IC50 was 6.3 nM.

Take `CCC/C=C/c1ncc(-c2ccc(Oc3cc(Cl)ccc3CN3C(=O)C[C@@H](Cc4ccccc4)C(=O)N(C)[C@@H](C)CNC(=O)C[C@H](Cc4ccc(Cl)cc4)N(C)C(=O)[C@H](COC)NC(=O)[C@@H]3C)cc2)n1C` [Compound 81, (2S,5S,8S,13S,16R)-16-benzyl-1-(4-chloro-2-(4-(1-methyl-2-((E)-pent-1-en-1-yl)-1H-imidazol-5-yl)phenoxy)benzyl)-8-(4-chlorobenzyl)-5-(methoxymethyl)-2,7,13,14-tetramethyl-1,4,7,11,14-pentaazacyclooctadecane-3,6,10,15,18-pentaone]: the Max % inhibition worked out at 87.86% and the IC50 stood at 34.5 nM.

As to `COC[C@@H]1NC(=O)[C@H](CC(=O)O)N(Cc2ccc(Cl)cc2Oc2ccc(-c3cnc(CN(C)C)n3C)cc2)C(=O)C[C@@H](Cc2ccccc2)C(=O)N(C)[C@@H](C)CNC(=O)C[C@H](Cc2ccc(Cl)cc2)N(C)C1=O` [Compound 82, 2-((2S,5S,8S,13S,16R)-16-benzyl-1-(4-chloro-2-(4-(2-((dimethylamino)methyl)-1-methyl-1H-imidazol-5-yl)phenoxy)benzyl)-8-(4-chlorobenzyl)-5-(methoxymethyl)-7,13,14-trimethyl-3,6,10,15,18-pentaoxo-1,4,7,11,14-pentaazacyclooctadecan-2-yl)acetic acid], the Max % inhibition stood at 99.99% and the IC50 was 1.3 nM.
